According to patent US20090137616A1, “METHOD FOR THE CONTROL OF PHYTOPATHOGENIC FUNGI” (Syngenta Crop Protection, Inc., priority 2004, published 2009):

Assays:
Pythium = experiment: Sensitivity of Pythium isolates to phenylamide and strobilurin fungicides (summary); assay type: cell-based; details: isolates from several species of Pythium that are insensitive to mefenoxam
Procedure: Plant and soil samples were collected from fields where plant stand establishment issues appeared to be increasing when using standard mefenoxam or metalaxyl seed treatment fungicide programs. Fungal pathogens were isolated from the plant and soil material. Pythium species were identified and studies were conducted to determine the sensitivity of these fungal pathogens to phenylamide and strobilurin fungicides. It can be seen that isolates from several species of Pythium that are insensitive to mefenoxam are sensitive to azoxystrobin or trifloxystrobin.

P. ultimum = experiment: Greenhouse seed treatment efficacy, Pioneer hybrid 34M95 seeds in Pythium-infested soil; assay type: in vivo; details: vs uninoculated seeds
From the text: Seeds of the Pioneer hybrid 34M95 were untreated and treated with mefenoxam, azoxystrobin or trifloxystrobin at the rates described in Table 3. To test the efficacy of the seed treatment fungicides pasteurized soil was infested with each isolate of Pythium at a rate of 7.8% (volume of inoculum/volume of soil). All these studies were done under greenhouse conditions, and data presented as a comparison against uninoculated seeds.

[1] = P. ultimum 03-047, seed treatment 5 g a.i/100 KgSeeds
[2] = P. ultimum 03-795, seed treatment 5 g a.i/100 KgSeeds
[3] = P. ultimum 03-047, seed treatment 2 g a.i/100 KgSeeds
[4] = P. ultimum 03-795, seed treatment 2 g a.i/100 KgSeeds
[5] = P. ultimum 03-047, seed treatment 1 g a.i/100 KgSeeds
[6] = P. ultimum 03-795, seed treatment 1 g a.i/100 KgSeeds

SMILES	sensitivity of mefenoxam-insensitive Pythium isolates (Pythium)	% fresh weight reduction (P. ultimum; [1]) [%]	% stand reduction (P. ultimum; [1]) [%]	% fresh weight reduction (P. ultimum; [2]) [%]	% stand reduction (P. ultimum; [2]) [%]	% fresh weight reduction (P. ultimum; [3]) [%]	% stand reduction (P. ultimum; [3]) [%]	% fresh weight reduction (P. ultimum; [4]) [%]	% stand reduction (P. ultimum; [4]) [%]	% fresh weight reduction (P. ultimum; [5]) [%]	% stand reduction (P. ultimum; [5]) [%]	% fresh weight reduction (P. ultimum; [6]) [%]	% stand reduction (P. ultimum; [6]) [%]
CON=C(C(=O)OC)c1ccccc1CON=C(C)c1cccc(C(F)(F)F)c1 [Trifloxystrobin, trifloxystrobin]	sensitive	0.0	0.0	24.1	6.7								
COCC(=O)N(c1c(C)cccc1C)[C@H](C)C(=O)OC [Mefenoxam, mefenoxam]						5.2	6.7	15.3	6.7				
CO/C=C(/C(=O)OC)c1ccccc1Oc1cc(Oc2ccccc2C#N)ncn1 [Azoxystrobin, azoxystrobin]	sensitive									7.9	0.0	24.7	6.7
